Results taken from paper PMC9016803, “Mitochondria-targeted half-sandwich iridium(III)-Cp*-arylimidazophenanthroline complexes as antiproliferative and bioimaging agents against triple negative breast cancer cells MDA-MB-468” (RSC Advances, 2022).

Legend:
[1] = system: CT-DNA; test: Ethidium bromide displacement (fluorescence quenching) assay; type: binding, calf
Method: The competitive binding of compounds IrL1 to CT-DNA was studied via fluorescence spectroscopy using ethidium bromide (EtBr) as the fluorophore. […] Intrinsic binding constant (Kb), Stern–Volmer quenching constant (Ksv) and apparent binding constant (Kapp) were highlighted in Table 2. […]
Ethidium bromide displacement assay
The ethidium bromide (EtBr) displacement assay was carried out to illustrate the mode of binding between the potent compounds with DNA.4 The apparent binding constant (K app) of the complexe IrL1 to Ct-DNA were calculated using ethidium bromide (EtBr) as a spectral probe in 5 mM Tris-HCl buffer (pH 7.4). The values of the apparent binding constant (K app) were obtained by using the equation (iii):
Kapp × [Complex]50 = kEtBr × [EtBr]⋯⋯⋯(iii)
Where KEtBr is the EtBr binding constant (K EtBr = 1.0 x 107 M-1), and [EtBr] = 8 x 10^-6 M.
(§1) Stern-Volmer equation was followed for quantitative determination of the Stern-Volmer quenching constant (K SV).5 Origin (8.5) software was used to plot the fluorescence data to obtain linear plot of I0/I vs. [complex]. The value of KSV was calculated from the following […]
(§2) Where I0 = fluorescence intensity in absence of complex and I = fluorescence intensities in presence of complex of concentration [Q].
We are acquainted with the fact that serum albumin proteins are the main component. […]

[2] = system: MDA-MB-468 cells; test: Annexin V-FITC/PI apoptosis assay; type: cell-based; conditions: 3 μM
[3] = Solubility study; type: physicochemical; conditions: DMSO-10% DMEM medium (1 : 99 v/v, comparable to cell media)
Method: Both hydrophilicity and lipophilicity studies were performed to determine the tumour-inhibiting potential of the metal complexes. These complexes were highly soluble in DMSO and moderately soluble in H2O, MeOH, EtOH and CH3CN. […] The lipophilicity of these complexes was determined by performing an n-octanol/water partition coefficient (log Po/w, where Po/w = the octanol/water partition coefficient) study using the shake flask method (Table 1).[24] The experimental log Po/w values of these complexes were determined to be in the range of 0.27–0.34 (Table 1). […] This change in the electrolytic behaviour of the complexes from 1 : 1 to 1 : 2 can be attributed to the dissociation of the Ir–Cl bond and subsequent aquation of the complexes.

[4] = system: MDA-MB-468 cells; test: ROS generation, DCFDA staining; type: cell-based
Method: Our results indicated a dose dependent increase in ROS production in the MDA-MB-468 cells treated with IrL1 concentrations 1 μM and 3 μM. The extent of ROS production is indicated by the 2′,7′-dichlorofluorescein (DCF) formed by the deacetylation and subsequent oxidation of 2′,7′-dichlorofluorescin diacetate (DCFDA) through cellular esterases and ROS. […] ROS production was absent in untreated control. However, in the positive control, treated with H2O2, ROS production was high which is ∼99% (Fig. 11).
Colocalization study and ROS generation studies were performed using live cell lines in their log phase.

[5] = target: T1, BSA (Bos taurus, UniProt P02769); test: BSA binding, tryptophan emission quenching; set-up: species or system bovine
T1 construct: purchased Sigma Aldrich Chemical Limited
T1 sequence (P02769 25-607): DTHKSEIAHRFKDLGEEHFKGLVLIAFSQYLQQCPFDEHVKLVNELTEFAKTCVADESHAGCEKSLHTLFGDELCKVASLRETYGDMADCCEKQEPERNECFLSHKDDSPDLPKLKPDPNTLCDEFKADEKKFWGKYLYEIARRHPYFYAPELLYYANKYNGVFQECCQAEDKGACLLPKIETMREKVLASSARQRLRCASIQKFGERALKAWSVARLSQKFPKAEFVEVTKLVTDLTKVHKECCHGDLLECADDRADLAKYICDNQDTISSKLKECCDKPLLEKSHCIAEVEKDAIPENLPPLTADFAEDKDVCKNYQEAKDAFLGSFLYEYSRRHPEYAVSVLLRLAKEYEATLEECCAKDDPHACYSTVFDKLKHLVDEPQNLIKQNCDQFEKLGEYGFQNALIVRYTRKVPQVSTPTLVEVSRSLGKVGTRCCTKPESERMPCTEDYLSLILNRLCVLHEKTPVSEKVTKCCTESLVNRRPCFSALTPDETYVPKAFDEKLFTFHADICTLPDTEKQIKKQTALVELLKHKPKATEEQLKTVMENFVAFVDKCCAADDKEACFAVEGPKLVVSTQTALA
Method: Upon excitation at 295 nm, the emission intensity of BSA at λem = 350 nm decreased gradually on increasing the complex concentration, which confirmed that the interaction between complex IrL1 with BSA had occurred, as observed in Fig. 8. The Stern–Volmer quenching constant of these complexes with BSA (KBSA) was calculated using the Stern–Volmer equation and the corresponding Stern–Volmer plots (Fig. 8, inset). The binding affinity (K) of the complexes was calculated from Scatchard plot analysis (Fig. 8, inset). […]
Kapp × [Complex]50 = kEtBr × [EtBr]⋯⋯⋯(iii) […]
as §1, §2
We are acquainted with the fact that serum albumin proteins are the main component. […] After each addition, the solutions were shaken slowly for 5 min before recording the fluorescence at a wavelength of 295 nm (λex = 295 nm). A gradual decrease in fluorescence intensity of BSA at λ = 340 nm was observed upon increasing the concentration of complex, which confirmed […]
that the interaction between the complex and BSA was happened. Stern-Volmer equation was employed to quantitatively determine the quenching constant (K BSA). […]
Where I0 is the fluorescence intensity of BSA in absence of complex and I indicates the fluorescence intensity of BSA in presence of complex of concentration [Q], τ0 = lifetime of the tryptophan in BSA found as 1 x 10-8 and kq is the quenching constant. […]
To allow the phase separation, the solution was centrifuged for 10 min at 3000 rpm. […] Aliquots of the aqueous and octanol layers were pipetted out separately and the absorbances were measured with UV-Vis spectrophotometer using proper dilution. […]

## [Iridium(III)-Cp*-2-(naphthalen-1-yl)-1H-imidazo[4,5-f][1,10]phenanthroline]PF6 [IrL1]
[1]; EtBr-bound CT-DNA
  Ksv, Stern–Volmer quenching constant: 22000 M⁻¹
[1]; competitive displacement of EtBr
  Kapp, apparent DNA binding constant: 2500 M⁻¹
[2]
  early apoptotic cells: ~34.89%
  viable cell population: ~51.37%
[3]
  Solubility: 700 µM
[4]; 1 μM
  DCF positive cells: 55.01%
[4]; 3 μM
  DCF positive cells: 70.67%
[5]; BSA
  K, binding affinity (Scatchard plot): 6.3e+06 M⁻¹
[5]; calculated from KSV and τ0 (1 × 10^−8 s)
  kq, bimolecular quenching constant: 5 × 10^12 M^−1 S^−1
[5]; excitation 295 nm
  KBSA, Stern–Volmer quenching constant with BSA: 50000 M⁻¹
